# In patent US20250313537A1, “BENZ[…] AND METHODS OF USE IN TREATING CANCER” (University of Cincinnati, priority 2022, published 2025):
# “Also recorded” adds a separate entry of the source.
# Legend:
# [1] = tested on: Lewis Lung Carcinoma cells; test: Mitochondrial depolarization, TMRE binding by FACS; format: cell-based, mouse; conditions: for TMRE binding (depolarization): Lewis Lung Carcinoma cells, FACS, within 15 minutes of incubation; for shift in electric charge distribution / depolarization of cancer cells: different/disparate cancer cell types
# [2] = tested on: cancer cell lines A375, H1792, LN18, LLC; test: In vitro viability assay (Cell Titer 96 Aqueous One), cancer cell lines; format: cell-based, human, mouse; conditions: for cytotoxicity of NOR-variant relative to non-NOR-variant: SRE-III-35 vs TA-IV-74, TA-II-59 vs TA-II-73
# Procedure: (§1) Cell lines tested were purchased from the American Type Culture Collection (ATCC). Cells were maintained in Dulbecco's Modified Eagle's Medium (DMEM) (Corning) or Roswell Park Memorial Institute (RPMI) 1640 Medium (Gibco). Media for lines was supplemented with 10% (v/v) Fetal Bovine Serum (FBS) (Corning) and 100 U/mL penicillin/streptomycin (Sigma). Lines were grown at 37° C. with 5% (v/v) CO2. Cells were passaged twice a week at 1:10 ratio and reached 80 to 90% confluency between 72 and 96 hours.
# (§2) For in vitro studies drug was solubilized in dimethyl sulfoxide (DMSO, 0.125%) prior to use. For mouse studies drug was solubilized in a co-solvent formulation: propylene glycol (40%); ethanol (10%); benzyl alcohol (2%); benzoic acid (2%); sodium benzoate (2%).
# (§3) For cell proliferation viability studies, cells were assayed using the Cell Titer 96® Aqueous One Solution Assay (Promega). IC50 values were determined using the ‘[Inhibitor] versus normalized response’ nonlinear regression function and the log of inhibitor concentration in Prism 8 software (version 8.3.0 for MacOS).
# [3] = tested on: Lewis Lung Carcinoma (LLC) tumors; test: Bilateral flank LLC tumor growth delay in C57Bl6 mice; format: in vivo, mouse
# Source text: as §2
# For subcutaneous xenograft tumor growth delay experiments, black 6 mice (C57Bl6) were purchased (Charles River Laboratories) and housed at University of Cincinnati LAMS. Purchased mice were allowed to accommodate for a week prior to experiment. Mice were housed in pathogen-free rooms and clinical health evaluated weekly by veterinary staff of the University of Cincinnati LAMS. All animal studies were conducted in accordance with approval of a University of Cincinnati IACUC.
# LLC1 cells (a million) grown in RPMI medium were washed in cold PBS and mixed with Matrigel 25%, then injected subcutaneously into left and right flanks above the hind limbs of 6 to 8-week-old mice. When subcutaneous tumors were palpable (˜100 mm^3 in size) the following treatments groups were initiated: (1) vehicle (2) drug. In mice receiving vehicle alone, the vehicle was injected i.p for 7 days. In mice receiving drug, drug (2.5 mg/kg body weight) was injected i.p. for 7 days. Following end of treatment, tumor volume were taken for growth delay studies. Mouse tumors were measured by Vernier calipers. Tumor volume was calculated using the formula: 4/3π×(l×h2), where: l and h are radii of the tumor taken perpendicular to each other. Tumor size was measured three times a week using a caliper.
# GABAA receptors = test: Single-cell patch-clamp electrophysiology in H1792 cells; format: cell-based, human; conditions: 1 μM GABA + 4 μM QH-II-066
# Source text: Recording solutions were purchased from Nanion Technologies.
# [4] = tested on: LC3B- and NIX-positive puncta in H1792 cells; test: Confocal immunofluorescence of autophagosome puncta; format: cell-based, human; conditions: H1792, relative to DMSO control
# Procedure: Cells were seeded on sterile glass cover slips and grown overnight at 37° C. Cells were then rinsed with cold PBS and fixed in 4% paraformaldehyde (30 min, room temperature). Fixed cells were rinsed in PBS (3×5 min at room-temperature), and permeabilized (15 min in PBS containing 0.1% Triton X-100). Cells were washed in PBS (3× for 5 min at room-temperature) and incubated with blocking buffer (PBS containing 0.3% Triton X-100 and 3% BSA) for 1 hr at room-temperature with gentle shaking. Blocking solution was aspirated, cells washed with ice-cold PBS, and incubated overnight with primary Ab (LC3B or NIX) diluted 1:200 in sterile 0.5% BSA in PBS at 4° C. on the cover slip placed on a glass slide kept inside a humidified 10 cm dish with gentle shaking 60. Cells were washed (3× for 5 min in PBS) and incubated with fluorophore conjugated secondary Ab goat anti-rabbit Alexa Fluor 594 (Abcam) in 2% normal donkey serum at room-temperature for 1 hr in dark. Cells were washed (3× for 5 min in PBS) under low light and mounted on a glass slide in […] Antifade Mounting Medium with DAPI (Vector Laboratories). The following Abs were used (1:200 dilution): rabbit anti-human LC3B (Cell Signaling Technology) and rabbit NIX (Cell Signaling Technology). Slides were imaged on a Zeiss LSM 710 laser scanning confocal microscope and analyzed using NIH Fiji ImageJ2 (version 1.53c).
# GABARAP = test: Western blot of GABARAP in H1792 cells; format: cell-based, human
# Procedure: DNA was sheared by sonication. Lysates were kept on ice for 30 min, centrifuged 10 min (13,500×g, 4° C.), and protein concentration of supernatant determined by a Bradford assay (Protein Assay Dye Reagent, Bio-Rad). Lysates were mixed 1:1 with 2× Laemmli sample buffer containing β-mercaptoethanol and heated 5 min at 95° C. Protein was resolved by SDS-PAGE using 4-20% gradient polyacrylamide gels (Bio-Rad), then transferred to nitrocellulose membranes (Bio-Rad) for 2 hr at 100 V in tris-glycine transfer buffer containing 20% methanol. Membranes were blocked at room-temperature in 5% 1×TBST blocking buffer (TBS with 0.1% Tween-20 and 5% non-fat dry milk) for 1 hr with gentle agitation, followed by overnight incubation with primary Ab and gentle shaking at 4° C. The primary Abs were diluted as follows: GAPDH (1:1000, Cell Signaling Technology); GABARAP (1:1000, Cell Signaling Technology); NIX (1:1000, Cell Signaling Technology). Immunodetection was performed with anti-rabbit horseradish-peroxidase-conjugated secondary antibody (1:10000, Cell Signaling Technology). Post-primary Ab incubation, membranes were washed (3× for 10 min in TBST at room-temperature), probed with rabbit HRP tagged secondary antibody (1:3000, Cell Signaling Technology), and processed for chemiluminescence detection using ECL kit (Thermo Scientific). […]
# NIX = test: Western blot of NIX in H1792 cells; format: cell-based, human
# Procedure: DNA was sheared by sonication. Lysates were kept on ice for 30 min, centrifuged 10 min (13,500×g, 4° C.), and protein concentration of supernatant determined by a Bradford assay (Protein Assay Dye Reagent, Bio-Rad). Lysates were mixed 1:1 with 2× Laemmli sample buffer containing β-mercaptoethanol and heated 5 min at 95° C. Protein was resolved by SDS-PAGE using 4-20% gradient polyacrylamide gels (Bio-Rad), then transferred to nitrocellulose membranes (Bio-Rad) for 2 hr at 100 V in tris-glycine transfer buffer containing 20% methanol. Membranes were blocked at room-temperature in 5% 1×TBST blocking buffer (TBS with 0.1% Tween-20 and 5% non-fat dry milk) for 1 hr with gentle agitation, followed by overnight incubation with primary Ab and gentle shaking at 4° C. The primary Abs were diluted as follows: GAPDH (1:1000, Cell Signaling Technology); GABARAP (1:1000, Cell Signaling Technology); NIX (1:1000, Cell Signaling Technology). Immunodetection was performed with anti-rabbit horseradish-peroxidase-conjugated secondary antibody (1:10000, Cell Signaling Technology). Post-primary Ab incubation, membranes were washed (3× for 10 min in TBST at room-temperature), probed with rabbit HRP tagged secondary antibody (1:3000, Cell Signaling Technology), and processed for chemiluminescence detection using ECL kit (Thermo Scientific). Chemiluminescence images were acquired using ChemiDoc Touch Imaging System (Bio-Rad).
# H1792 cells = test: In vitro viability assay (Cell Titer 96 Aqueous One), H1792; format: cell-based, human; conditions: H1792 cells (FIG. 6, 7A, 7B)
# Procedure: as §1, §2, §3
# [5] = 2.5 mg/kg i.p. for seven consecutive days
smiles,measurement,setting,value
"C#Cc1ccc2c(c1)C(c1ccccc1C)=NCC(=O)N2 [TA-II-59, 7-ethynyl-5-(o-tolyl)-1,3-dihydro-2H-benzo[e][1,4]diazepin-2-one]",TMRE binding (depolarization),[1],reduced TMRE binding
same,shift in electric charge distribution / depolarization of cancer cells,[1],depolarizing
same,cytotoxicity to cancer cells,"[2]; LN18, H1792, A375, LLC1",most potent
same,cytotoxicity of NOR-variant relative to non-NOR-variant,[2],2 fold
same,potency relative to QH-II-066,[2]; cytotoxicity,an order of magnitude more potent
same,tumor control relative to vehicle mice,[3]; [5],significant tumor control
C#Cc1ccc2c(c1)C(c1ccccc1)=NCC(=O)N2C [QH-II-066],current response to GABA plus compound over GABA alone,GABAA receptors,enhanced response; also recorded: enhances the current signal
same,LC3B-positive puncta,[4],increased puncta
same,NIX-positive puncta,[4],increased puncta
same,GABARAP dimerization,"GABARAP; H1792, 72 hours",dimerize
same,GABARAP protein level,"GABARAP; H1792, 72 hours post-treatment",pronounced accumulation
same,dose dependence of induced NIX dimerization,NIX; H1792,dose-dependent
same,NIX dimerization,"NIX; H1792, 72 hours",dimerize
same,NIX protein level,"NIX; H1792, 72 hours post-treatment",pronounced accumulation
"CN1C(=O)CN=C(c2ccccc2)c2cc(C3CC3)ccc21 [TA-IV-74, 7-cyclopropyl-1-methyl-5-phenyl-1,3-dihydro-2H-benzo[e][1,4]diazepin-2-one]",effect compared with the other compounds tested,[3]; [5],most significant effect; also recorded: most effective
same,tumor control relative to vehicle mice,[3]; [5],significant tumor control
same,tumor volume,"[3]; at 25 days, 2.5 mg/kg i.p. for seven days",no increase in tumor volume
"O=C1CN=C(c2ccccc2)c2cc(C3CC3)ccc2N1 [SRE-III-35, 7-cyclopropyl-5-phenyl-1,3-dihydro-2H-benzo[e][1,4]diazepin-2-one]",TMRE binding (depolarization),[1],reduced TMRE binding
same,shift in electric charge distribution / depolarization of cancer cells,[1],depolarizing
same,cytotoxicity of NOR-variant relative to non-NOR-variant,[2],2 fold
same,potency relative to TA-II-59,[2]; cytotoxicity,equally as potent
same,tumor control relative to vehicle mice,[3]; [5],significant tumor control
"O=C1CN=C(c2ccccc2)c2cc(Br)cc(Br)c2N1 [TA-III-56, 7,9-dibromo-5-phenyl-1,3-dihydro-2H-benzo[e][1,4]diazepin-2-one]",cytotoxicity (activity),H1792 cells,poorly or inactive
"C#Cc1ccc2c(c1)C(c1ccccc1F)=NC(O)C(=O)N2 (stereo not drawn) [MYM-I-59, 7-ethynyl-5-(2-fluorophenyl)-3-hydroxy-1,3-dihydro-2H-benzo[e][1,4]diazepin-2-one]",cytotoxicity (activity),H1792 cells,poorly or inactive
"C#Cc1ccc2c(c1)C(c1ccccc1)=NCC(=S)N2C [TA-III-52, 7-ethynyl-1-methyl-5-phenyl-1,3-dihydro-2H-benzo[e][1,4]diazepine-2-thione]",cytotoxicity (activity),H1792 cells,poorly or inactive
"C#Cc1cc(C#C)c2c(c1)C(c1ccccc1)=NCC(=O)N2C [TA-III-62, 7,9-diethynyl-1-methyl-5-phenyl-1,3-dihydro-2H-benzo[e][1,4]diazepin-2-one]",cytotoxicity (activity),H1792 cells,poorly or inactive
"O=C1CN=C(c2ccccc2F)c2cc(C3CC3)ccc2N1 [SRE-III-43, 7-cyclopropyl-5-(2-fluorophenyl)-1,3-dihydro-2H-benzo[e][1,4]diazepin-2-one]",TMRE binding (depolarization),[1],reduced TMRE binding
same,shift in electric charge distribution / depolarization of cancer cells,[1],depolarizing
"C#Cc1ccc2c(c1)C(c1ccccc1)=NC(O)C(=O)N2C (stereo not drawn) [TA-III-70, 7-ethynyl-3-hydroxy-1-methyl-5-phenyl-1,3-dihydro-2H-benzo[e][1,4]diazepin-2-one]",cytotoxicity (activity),H1792 cells,poorly or inactive
"C#Cc1ccc2c(c1)C(c1ccccc1F)=NCC(=S)N2C [TA-III-50, 7-ethynyl-5-(2-fluorophenyl)-1-methyl-1,3-dihydro-2H-benzo[e][1,4]diazepine-2-thione]",cytotoxicity (activity),H1792 cells,poorly or inactive
